Results reported in patent publication US11147272B2, “Pyridone compounds and agricultural and horticultural fungicides comprising the same as active ingredients” (MITSUI CHEMICALS AGRO, INC., priority 2017, dated 2021).

Tests used:
Plasmopara viticola = test: Test Example G: Downy mildew on vine; details: for Test G control value: 7 to 10 days after inoculation; for Test G control value class: Downy mildew on vine (Neomuscat), 2.5 ml/pot, assessed 7 to 10 days after inoculation
Botrytis cinerea = test: Test Example B: Gray mold on tomato; details: for Test B control value class: class of control value
Phytophthora infestans = test: whole plant or invertebrate; assay type: in vivo; details: for Test F control value class: class of control value
[1] = tested on: Blumeria graminis f. sp. hordei; test: Test Example D: Powdery mildew on barley; details: for Test D control value class: class of control value
Alternaia brassicicola = test: Test Example C: Alternaria sooty spot on cabbage; assay type: in vivo; details: for Test C control value class: class of control value
Description: Seeds of a test plant (cabbage variety: Shikidori) were planted and cultivated until the cotyledons extended.
<Control Value> Control value=100{1−(n/3)}

Puccinia recondita = test: Test Example E: Brown rust on wheat; assay type: in vivo; details: for Test E control value class: class of control value
[2] = tested on: Colletotrichum orbiculare; test: Test Example H: Anthracnose on cucumber; details: for Test H control value: 6 to 10 days after inoculation; for Test H control value class: Anthracnose on cucumber (Sagami Hanjiro), 2.5 ml/pot, assessed 6 to 10 days after inoculation
Magnaporthe grisea = test: whole plant or invertebrate; assay type: in vivo; details: for Test A control value class: class of control value
[3] = Downy mildew on vine, 250 ppm spray
[4] = Gray mold on tomato, control value class
[5] = Late blight on tomato, control value class
[6] = Powdery mildew on barley, control value class
[7] = Alternaria sooty spot on cabbage, control value class
[8] = Brown rust on wheat, control value class
[9] = Anthracnose on cucumber, 250 ppm spray
[10] = Blast on rice, control value class
[11] = 250 ppm drug solution sprayed (2.5 ml/pot), grape Neomuscat
[12] = 250 ppm drug solution sprayed on test plant
[13] = 250 ppm drug solution sprayed (2.5 ml/pot), cucumber Sagami Hanjiro
[14] = Alternaria sooty spot on cabbage

| SMILES | Test G control value (Plasmopara viticola; [3]) | Test B control value (Botrytis cinerea; [4]) | Test F control value (Phytophthora infestans; [5]) | Test D control value [1, 6] | Test C control value (Alternaia brassicicola; [7]) | Test E control value (Puccinia recondita; [8]) | Test H control value [2, 9] | Test A control value (Magnaporthe grisea; [10]) | Test G control value (Plasmopara viticola; [11]) | Test B control value (Botrytis cinerea; [12]) | Test F control value (Phytophthora infestans; [12]) | Test D control value [1, 12] | Test C control value (Alternaia brassicicola; [12]) | Test E control value (Puccinia recondita; [12]) | Test H control value [2, 13] | Test A control value (Magnaporthe grisea; [12]) | other results |
| --- | --- | --- | --- | --- | --- | --- | --- | --- | --- | --- | --- | --- | --- | --- | --- | --- | --- |
| CCn1c(-c2c(F)cc(F)cc2F)c(C(=O)C(C)C)cc(Br)c1=O [compound 366] | H (more than 50% control value) | H (more than 50% control value) | L (50% or less control value) | H (more than 50% control value) | H (more than 50% control value) | H (more than 50% control value) | H (more than 50% control value) | H (more than 50% control value) |  |  |  |  |  |  |  |  |  |
| CCc1cc(Br)c(=O)n(CC)c1-c1c(F)cc(F)cc1F [compound 387] |  |  |  |  |  |  |  |  | H (more than 50% control value) | H (more than 50% control value) | L (50% or less control value) | H (more than 50% control value) | H (more than 50% control value) | H (more than 50% control value) | H (more than 50% control value) | H (more than 50% control value) |  |
| CCn1c(-c2c(F)cc(F)cc2F)c(C(=O)C(C)C)cc(Cl)c1=O [compound 66] |  |  |  |  |  |  |  |  |  |  |  |  |  |  |  |  | Test G control value class (Plasmopara viticola; 250 ppm spray): L (50% or less control value); Test B control value class (Botrytis cinerea; Gray mold on tomato): H (more than 50% control value); Test F control value class (Phytophthora infestans; Late blight on tomato): L (50% or less control value); Test D control value class ([1]; Powdery mildew on barley): H (more than 50% control value); Test C control value class (Alternaia brassicicola; [14]): H (more than 50% control value); Test E control value class (Puccinia recondita; Brown rust on wheat): H (more than 50% control value); Test H control value class ([2]; 250 ppm spray): H (more than 50% control value); Test A control value class (Magnaporthe grisea; Blast on rice): H (more than 50% control value) |
| CCn1c(-c2c(F)cc(F)cc2F)c(C(C)(F)CC)cc(Cl)c1=O (centres unmarked) [compound 56] |  |  |  |  |  |  |  |  |  |  |  |  |  |  |  |  | Test G control value class (Plasmopara viticola; 250 ppm spray): H (more than 50% control value); Test B control value class (Botrytis cinerea; Gray mold on tomato): H (more than 50% control value); Test F control value class (Phytophthora infestans; Late blight on tomato): L (50% or less control value); Test D control value class ([1]; Powdery mildew on barley): H (more than 50% control value); Test C control value class (Alternaia brassicicola; [14]): H (more than 50% control value); Test E control value class (Puccinia recondita; Brown rust on wheat): H (more than 50% control value); Test H control value class ([2]; 250 ppm spray): H (more than 50% control value); Test A control value class (Magnaporthe grisea; Blast on rice): H (more than 50% control value) |
| CCCc1cc(Br)c(=O)n(C)c1-c1ccc(OC)cc1C [compound 431] |  |  |  |  |  |  |  |  | H (more than 50% control value) | H (more than 50% control value) | L (50% or less control value) | H (more than 50% control value) | H (more than 50% control value) | H (more than 50% control value) | H (more than 50% control value) | H (more than 50% control value) |  |
| CCCc1cc(Br)c(=O)n(C)c1-c1ccc(F)cc1C [compound 421] |  |  |  |  |  |  |  |  | L (50% or less control value) | H (more than 50% control value) | L (50% or less control value) | H (more than 50% control value) | H (more than 50% control value) | H (more than 50% control value) | H (more than 50% control value) | L (50% or less control value) |  |
| CCCc1cc(Br)c(=O)n(CC)c1-c1c(F)cc(OCC)cc1F [compound 458] |  |  |  |  |  |  |  |  | H (more than 50% control value) | H (more than 50% control value) | L (50% or less control value) | H (more than 50% control value) | H (more than 50% control value) | H (more than 50% control value) | H (more than 50% control value) | H (more than 50% control value) |  |
| CCn1c(-c2ccc(F)cc2F)c(CC(C)C)cc(Cl)c1=O [compound 119] |  |  |  |  |  |  |  |  |  |  |  |  |  |  |  |  | Test G control value class (Plasmopara viticola; 250 ppm spray): H (more than 50% control value); Test B control value class (Botrytis cinerea; Gray mold on tomato): H (more than 50% control value); Test F control value class (Phytophthora infestans; Late blight on tomato): L (50% or less control value); Test D control value class ([1]; Powdery mildew on barley): H (more than 50% control value); Test C control value class (Alternaia brassicicola; [14]): H (more than 50% control value); Test E control value class (Puccinia recondita; Brown rust on wheat): H (more than 50% control value); Test H control value class ([2]; 250 ppm spray): H (more than 50% control value); Test A control value class (Magnaporthe grisea; Blast on rice): H (more than 50% control value) |
| CCCc1ccc(=O)n(C)c1-c1ccc(F)cc1C [compound 419] |  |  |  |  |  |  |  |  | L (50% or less control value) | L (50% or less control value) | L (50% or less control value) | L (50% or less control value) | H (more than 50% control value) | L (50% or less control value) | H (more than 50% control value) | L (50% or less control value) |  |
| CCC(OC)c1cc(Cl)c(=O)n(C)c1-c1c(F)cc(OC)cc1F (centres unmarked) [compound 506] |  |  |  |  |  |  |  |  | H (more than 50% control value) | H (more than 50% control value) | L (50% or less control value) | H (more than 50% control value) | H (more than 50% control value) | H (more than 50% control value) | H (more than 50% control value) | H (more than 50% control value) |  |
| CCn1c(-c2c(F)cc(OC)cc2F)c(CN(C)OC)cc(Cl)c1=O [compound 94] |  |  |  |  |  |  |  |  |  |  |  |  |  |  |  |  | Test G control value class (Plasmopara viticola; 250 ppm spray): H (more than 50% control value); Test B control value class (Botrytis cinerea; Gray mold on tomato): H (more than 50% control value); Test F control value class (Phytophthora infestans; Late blight on tomato): H (more than 50% control value); Test D control value class ([1]; Powdery mildew on barley): H (more than 50% control value); Test C control value class (Alternaia brassicicola; [14]): H (more than 50% control value); Test E control value class (Puccinia recondita; Brown rust on wheat): H (more than 50% control value); Test H control value class ([2]; 250 ppm spray): H (more than 50% control value); Test A control value class (Magnaporthe grisea; Blast on rice): H (more than 50% control value) |
| CCCc1cc(Cl)c(=O)n(CC)c1-c1ccc(F)cc1Cl [compound 191] | H (more than 50% control value) | H (more than 50% control value) | L (50% or less control value) | H (more than 50% control value) | H (more than 50% control value) | H (more than 50% control value) | H (more than 50% control value) | H (more than 50% control value) |  |  |  |  |  |  |  |  |  |
| CCn1c(-c2ccc(F)cc2Cl)c(C)ccc1=O [compound 279] | L (50% or less control value) | L (50% or less control value) | L (50% or less control value) | H (more than 50% control value) | L (50% or less control value) | L (50% or less control value) | L (50% or less control value) | L (50% or less control value) |  |  |  |  |  |  |  |  |  |
| CCCCCCCc1ccc(=O)n(CC)c1-c1ccc(F)cc1Cl [compound 266] | L (50% or less control value) | L (50% or less control value) | L (50% or less control value) | H (more than 50% control value) | L (50% or less control value) | H (more than 50% control value) | H (more than 50% control value) | L (50% or less control value) |  |  |  |  |  |  |  |  |  |
| CCc1cc(Cl)c(=O)n(CC)c1-c1ccc(F)cc1C [compound 351] | L (50% or less control value) | H (more than 50% control value) | L (50% or less control value) | H (more than 50% control value) | H (more than 50% control value) | H (more than 50% control value) | H (more than 50% control value) | L (50% or less control value) |  |  |  |  |  |  |  |  |  |
| CCn1c(-c2ccccc2Cl)c(CC(C)C)cc(Br)c1=O [compound 264] | L (50% or less control value) | H (more than 50% control value) | L (50% or less control value) | H (more than 50% control value) | H (more than 50% control value) | H (more than 50% control value) | H (more than 50% control value) | L (50% or less control value) |  |  |  |  |  |  |  |  |  |
